Measurements published in US6509325B1, “Method for inhibiting melanogenesis and uses thereof” (priority 2000, dated 2003).

Legend:
[1] = system: melanization in C. neoformans; assay: Effect of sub-inhibitory glyphosate on melanization of C. neoformans cultures with L-dopa; type: cell-based, Cryptococcus neoformans; settings: 1 mM L-dopa; for Melanization: control without glyphosate day 7
Method: Positive melanin controls were cultures containing L-dopa without glyphosate; negative controls were cultures lacking both L-dopa and glyphosate. All cultures were grown in duplicate. The cultures were examined visually for melanization. The growth rate of the cells in each culture was determined by counting, with a hemocytometer, the number of cells per ml at various times after the initiation of the culture.

[2] = system: C. neoformans; assay: Lung CFUs in A/J Cr mice infected with C. neoformans; type: in vivo; settings: 1 mg glyphosate i.p. at 24, 48, 72 h, 44 days after infection, n=13, controls 9.63±0.21, p=0.004
Method: (§1) Cryptococcus neoformans cells were collected as described above. BALB/c mice (National Cancer Institute (NCI), Bethesda, Md.), 6-8 weeks old, were injected intravenously (i.v.) by the tail veins with 1×10^6 organisms. […] In experiment A, uninfected control mice were injected with glyphosate at the same time intervals. […] Forty-four days after infection, the A/J Cr mice were killed, and the lungs were isolated and homogenized in 5 ml of PBS. 100 μl of 1/100 and 1/1000 dilutions of the homogenates in PBS were then plated on Sab agar. Colony-forming units (CFUs) were determined after incubation of the plates at 30° C. for 48 h (1 colony=1 CFU). […] Control mice were injected with PBS instead of glyphosate.

[3] = system: autopolymerization of L-dopa to melanin; assay: Autopolymerization of L-dopa to melanin (spectrophotometry)
Method: In solution, L-dopa slowly autopolymerizes to form melanin [20]. […] The samples were left on the benchtop at room temperature. An Ultraspec 2000 spectrophotometer (Pharmacia Biotech, Cambridge, England) was used to assess absorption at 270λ after 3 days and 20 days. […] A freshly-prepared solution of the same concentrations was tested for comparison.

[4] = system: C. neoformans strain 24067; assay: Survival of BALB/c mice infected with C. neoformans; type: in vivo; settings: for survival advantage: oral
Method: as §1
Data analysis was performed using SPSS version 8. Student's T-test and Kaplan-Meier survival analysis were utilized.

[5] = system: Cryptococcus neoformans serotype D strain 24067; assay: Glyphosate inhibition of C. neoformans growth (turbidity, 96-well plates); type: cell-based; settings: after 72 h of incubation, 30° C., Sab, visual turbidity
Method: Cryptococcus neoformans serotype D strain 24067 was obtained from the American Type Culture Collection (Rockville, Md.), and grown overnight at 30° C. with shaking in Sabouraud dextrose media (Sab) obtained from Difco Laboratories (Detroit, Mich.). Cells were collected and washed three times with phosphate-buffered saline (PBS: 0.137 M NaCl and 0.003 M sodium phosphate; pH 7.4). A suspension of 250 organisms per 1 ml of Sab was made. Glyphosate was obtained from the Sigma Chemical Co. (St. Louis, Mo.). […] Each concentration was tested in triplicate. The plates were incubated at 30° C., and growth was assayed visually for turbidity after 72 h.

**Q.** How did the “Melanization” value ([1]; 62.5 μg/ml glyphosate) turn out when O=C(O)CNCP(=O)(O)O [glyphosate, N-phosphonomethylglycine] was run?
**A.** 10 days

**Q.** What about the “Melanization” value ([1]; 125 μg/ml glyphosate) of the same molecule?
**A.** 13 days

**Q.** And the “Melanization” value ([1]; 250 μg/ml glyphosate)?
**A.** 15 days

**Q.** And the “melanization state of culture” value ([1]; grown 10 days in minimal media, 62.5 μg/ml glyphosate)?
**A.** heavily melanized

**Q.** And the “Log10 CFUs from lung homogenates” value [2]?
**A.** 8.62±1.12

**Q.** What about the absorption value ([3]; 0.12 μg/ml glyphosate, 1 mM L-dopa, day 3, 270λ, control without compound 0.425) of the same molecule?
**A.** 0.359

**Q.** And the “concentration of glyphosate at which an absorption signal could be detected” value ([3]; day 3, 1 mM L-dopa, room temperature, 270λ)?
**A.** 39 µg/mL

**Q.** What about the “concentrations of glyphosate that continued to inhibit melanin formation” value ([3]; day 20, 1 mM L-dopa, room temperature) of the same molecule?
**A.** ≥ 31.3 µg/mL

**Q.** What about the Mean survival ([4]; 0.75 mg/day glyphosate i.p. protocol, control 20.4±1.31 days, p=0.049) of the same molecule?
**A.** 26.8 ± 3.55 days

**Q.** And the “Mean survival time and standard deviation by Kaplan-Meier analysis” value ([4]; 1.5 mg/day glyphosate i.p. for three days, control 15.9±1.57 days, p=0.001)?
**A.** 25.7 ± 2.36 days

**Q.** What about the survival advantage ([4]; ad lib water containing 2 mg/ml glyphosate) of the same molecule?
**A.** no survival advantage

**Q.** And the survival advantage ([4]; ad lib water containing 10 mg/ml glyphosate)?
**A.** no survival advantage

**Q.** And the “concentrations of glyphosate at which growth inhibition was observed” value [5]?
**A.** > 250 µg/mL

**Q.** What about the “concentrations of glyphosate at which no growth inhibition was observed” value [5] of the same molecule?
**A.** < 250 µg/mL
